Values joined by “and” are separate entries in the source; they are usually repeats but may differ in a detail not shown here. Equal values may be shown once. Peptide text beside a SMILES is read from it. * marks the point of attachment. Fmoc = O=C(OCC1c2ccccc2-c2ccccc21)*

Experiment [1] has as its target T1, legumain (Mus musculus, UniProt O89017).
T1 construct: purchased Novus Biologicals
T1 sequence (O89017 18-325 limits assumed): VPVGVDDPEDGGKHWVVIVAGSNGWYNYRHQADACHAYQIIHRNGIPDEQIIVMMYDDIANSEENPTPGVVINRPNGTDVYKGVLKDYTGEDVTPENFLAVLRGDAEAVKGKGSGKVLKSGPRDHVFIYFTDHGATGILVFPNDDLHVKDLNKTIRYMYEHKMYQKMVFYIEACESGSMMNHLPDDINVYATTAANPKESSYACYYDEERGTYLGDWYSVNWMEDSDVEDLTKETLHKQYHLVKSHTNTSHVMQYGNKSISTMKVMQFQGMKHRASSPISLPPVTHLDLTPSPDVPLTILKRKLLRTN
The experiment is described as follows: Legumain assay with peptide 1 and Thioflavin T in buffer. In kind it is biochemical. As for the experimental part: Legumain activation. To activate legumain, 5 μL of prolegumain solution (0.5 mg/mL in Tris buffer containing 10% glycerol) was mixed with 20 μL of activation buffer (50 mM Sodium Acetate, 100 mM NaCl, pH 4.0) and incubated at 37° C. for 2 h. It was then diluted in 225 μL of legumain assay buffer (50 mM MES, 250 mM NaCl, pH 5) to give a final legumain concentration of 10 μg/mL and immediately used in the assay.
Legumain assay. In a typical assay, peptide 1 was first dissolved in ultrapure water containing 25% DMSO at a peptide concentration of 10 mg/mL. It was then diluted in phosphate-buffered saline (PBS, pH 7.4, 10 mM) to give a peptide concentration of 2 mg/mL. Next, 50 μL of the peptide solution was mixed with 50 μL of MES buffer (50 mM MES, 250 mM NaCl, pH 5) containing activated legumain at different concentrations (0-2000 ng/mL) in a 96 well plate and the plate was incubated at 37° C. for 2 h. Note that the final peptide concentration was 1 mg/mL and final legumain concentrations were between 0 and 1000 ng/mL. Finally, 10 μL of ThT solution (1 mM, in ultrapure water) was added to each well, and ThT fluorescence was measured using a Spark 20M microplate reader (Tecan) after 15-30 min incubation at room temperature.
In the peptide concentration experiment, appropriate amounts of peptide 1 stock solution (10 mg/mL) were diluted in PBS and mixed with the MES buffer containing legumain, as described above, to give the final peptide concentrations between 0.05 and 1 mg/mL in the assay. In kinetic studies, ThT solution was mixed with the peptide immediately before the addition of activated legumain, and the plate was incubated in a Spark 20M microplate reader (Tecan) at 37° C. for 3 hours, and ThT fluorescence was recorded every 4 minutes. For the inhibitor experiment, the legumain inhibitor, RR-11a, was first dissolved in DMSO (1 mM), and appropriate amounts of inhibitor were incubated with legumain for about 1.0 hour at room temperature in 96 well plates. Finally, the legumain solutions incubated with different amounts of inhibitor were mixed with the peptide 1 solution, and the assay was performed as described above. For the experiments in plasma, 10 μL or 20 μL of PBS in the wells were replaced with human plasma to achieve final plasma concentrations of 10% and 20%, respectively.

Experiment [2] deals with T1, legumain. The experiment is described as follows: LC-MS analysis of hydrolysis of peptide 1 by legumain. In kind it is biochemical. The settings on record: peptide about 0.5 mg/mL, legumain about 1000 ng/mL, 37° C., about 2 hours. How it is done: Fluorescence spectroscopy. For fluorescence measurements, peptide 2 was dissolved in DMSO to give a peptide concentration of 10 mg/mL, and it was 5× diluted in DMSO or the assay buffer and fluorescence spectra of the Fmoc groups were recorded using an FP-8500 spectrofluorometer (JASCO, Inc). Liquid chromatography mass spectrometry (LC-MS) measurements. LC-MS measurements were carried using an Acquity UPLC System (Waters) equipped with a SQ Detector 2 (Waters) and a C18 column (Waters). For LC-MS measurement, peptide 1 was first dissolved in ultrapure water containing 25% DMSO and diluted in PBS and MES mixture with or without legumain as described above. Final peptide concentration was about 0.5 mg/mL and legumain concentrations were about 0 ng/mL and about 1000 ng/mL. Samples were incubated at 37° C. for about 2 hours, diluted in HPLC grade water and acetonitrile mixture (1:1) containing 1% formic acid, and loaded to the column.

For the compound `C[C@H](NC(=O)[C@H](C)NC(=O)[C@H](CCC(=O)O)NC(=O)[C@H](Cc1ccccc1)NC(=O)[C@H](CCCCN)NC(=O)[C@H](Cc1ccccc1)NC(=O)OCC1c2ccccc2-c2ccccc21)C(=O)N[C@@H](CC(N)=O)C(=O)NCC(=O)N[C@@H](CCC(=O)O)C(=O)N[C@@H](CCC(=O)O)C(=O)NCC(=O)N[C@@H](CO)C(=O)NCC(=O)N[C@@H](CCC(=O)O)C(=O)N[C@@H](CCC(=O)O)C(=O)O` [peptide 1] (Fmoc-FKFEAANGEEGSGEE-OH; C-terminus assumed), the “fluorescence intensity at 24 hours compared with the intensity at two hours” value on legumain [1] (1000 ng/mL legumain) is reported as “about 2.5”. The “enhancement in the ThT emission intensity” value on legumain [1] (1000 ng/mL legumain, about two hours, peptide 1 1 mg/mL, ThT 90 μM) is “about 32 fold”. Further, at legumain [1] (1 mg/mL peptide concentration, legumain 500 ng/mL), the “enhancement in ThT emission” value was determined as 28 fold. The fluorescence enhancement result on legumain [1] (legumain 10.0 ng/mL, about two hours, ThT 90 μM) is recorded as “about 1.3 fold”; on legumain [1] (legumain 25.0 ng/mL, about two hours, ThT 90 μM), “about 3 fold”. At legumain [1] (legumain, buffer), the “limit of detection (LOD)” value is “about 12 ng/mL and 0.21 nM”. The “limit of quantification (LOQ)” value at legumain [1] (legumain, buffer) was “about 25 ng/mL and 0.45 nM”. The “enhancement in the ThT fluorescence in the absence of legumain” value at legumain [1] (no legumain, up to the highest peptide concentration (1.0 mg/mL)) was “no significant enhancement”. Moreover, at legumain [1] (peptide 1 1.0 mg/mL, ThT 90 μM, no legumain), the “enhancement in the ThT emission” value came to 1.4 fold. In addition, on legumain [1] (peptide concentration below 0.25 mg/mL, legumain 500 ng/mL), the “ThT emission intensity increase” value is reported as 1.3-1.4 fold. For the same compound, the “peptide cleaved by legumain (LC-MS)” value on legumain [2] is reported as roughly 30%.

For the origin of these results see patent US20250123280A1, “LABEL-FREE DETECTION OF PROTEASE ACTIVITY” (OREGON HEALTH & SCIENCE UNIVERSITY, priority 2021, published 2025).
